The text below walks through data of patent US5863931A, “Amidino derivatives and their use as nitric oxide synthase inhibitors” (priority 1991, dated 1999).

One experiment deals with T1, Inducible NO synthase (Rattus norvegicus, UniProt Q06518).
T1 construct: activity of the inducible enzyme in the vascular smooth muscle cells; from tissue; host or cells: rat aortic rings, LPS-induced (vascular smooth muscle)
The experiment can be described thus: Inducible NO synthase inhibition (method essentially according to Rees et al, Biochem. Biophys. Res. Comm. 1990; rat aortic rings, LPS-induced loss of tone). It counts as cell-based. The following applies: for EC50 ratio: constitutive EC50 / inducible EC50. On the procedure: (§1) The activity of a compound as an inhibitor of the enzyme NO synthase can be determined by an assay in which a macrophage cell line (J774) is induced to express NO synthase with lipopolysaccharide (LPS) and interferon gamma and NO generated is measured by its reaction with haemoglobin or as nitrite. […] Selectivity can be determined by use of an assay based on rat aortic rings in vitro. The basal tone of the tissue is used as an indication of the activity of the constitutive NO synthase whereas LPS-induced loss of tone mediated by NO is used as an indication of the activity of the inducible enzyme in the vascular smooth muscle cells.
Inducible NO synthase--method essentially according to Rees et al, Biochem. Biophys. Res. Comm., 173, 541-547 (1990).

The target of the next experiment is T2, Constitutive NO synthase (Rattus norvegicus, UniProt Q62600).
T2 construct: The basal tone of the tissue is used as an indication of the activity of the constitutive NO synthase; from tissue; host or cells: rat aortic rings
The experiment can be described thus: Constitutive NO synthase inhibition (method of Rees et al, Br. J. Pharmacol. 1990; rat aortic rings in vitro, basal tone). The format is cell-based. As to the method:
as §1, with “cells. […] Constitutive NO synthase--method of Rees et al, Br. J. Pharmacol., 101, 746-752 (1990)” for “cells.”

Experiment [1] relates to constitutive and the inducible NO synthase. The following applies: inhibits both constitutive and inducible NO synthase; cited from earlier work.
The mark [2] stands for this setting: inducible NO synthase, read-out: NO Synthase Activity Inducible EC50.

Like-named read-outs stand apart in the source and are kept apart here.

For `CC(=N)NC/C=C/CC(N)C(=O)O.Cl` (racemic) [Example 3, (±)-E-2-Amino-6-(1-Iminoethylamino)-hex-4-enoic acid hydrochloride], the EC50 ratio at Inducible NO synthase was 9.7. In addition, the EC50 was 320 nM at Inducible NO synthase (setting [2]) and 3.1 µM at Constitutive NO synthase.

`CC(=N)NCCC[C@H](N)C(=O)O.Cl` [Example 1, (S)-N^5-(1-Iminoethyl)ornithine hydrochloride]: at Inducible NO synthase, the EC50 ratio came to 36.4. For the same molecule, the EC50 at Inducible NO synthase (setting [2]) was determined as 140 nM; on Constitutive NO synthase, 5.1 µM.

As for `CC(=N)NCCCC[C@H](N)C(=O)O.Cl` [Example 2, (S)-N^6-(1-Iminoethyl) lysine hydrochloride], at Inducible NO synthase, the response was half-maximal at 160 nM (EC50) and the EC50 ratio is 43.1. For the same molecule, at Constitutive NO synthase, it took 6.9 µM to reach a half-maximal effect (EC50).

As to `CC(=N)NCCSC[C@@H](N)C(=O)O.Cl` [Example 4, (S)-S-2-(1-Iminoethylamino)ethylcysteine hydrochloride], at Inducible NO synthase, the EC50 ratio was 33.4. In addition, the concentration giving a half-maximal response (EC50) at Inducible NO synthase (setting [2]) turned out to be 130 nM; at Constitutive NO synthase it was 4.3 µM.

As for `CN=C(N)NCCC[C@H](N)C(=O)O` [L-NMMA, L-N-monomethyl-arginine], the “selectivity between constitutive and inducible NO synthase” value in experiment [1] is listed as “non-selective”.
